Experiments:
h-GABA-A α5β3γ2 [1] = molecular target: T1, h-GABA-A α5β3γ2 (Homo sapiens, UniProt P18507+P31644); assay: [3H]flumazenil competition binding assay, membranes of HEK293 cells expressing GABAA receptors; settings: displacement of [3H]-Flumazenil 0.5 nM, HEK293 cells expressing human receptors, mean of two determinations; Table 1
Experimental: The affinity of compounds at GABAA receptor subtypes was measured by competition for [3H]flumazenil (85 Ci/mmol; Roche) binding to HEK293 cells expressing rat (stably transfected) or human (transiently transfected) receptors of composition α1β3γ2, α2β3γ2, α3β3γ2 and α5β3γ2.
Cell pellets were suspended in Krebs-tris buffer (4.8 mM KCl, 1.2 mM CaCl2), 1.2 mM MgCl2, 120 mM NaCl, 15 mM Tris; pH 7.5; binding assay buffer), homogenized by polytron for ca. 20 sec on ice and centrifuged for 60 min at 4° C. (50000 g; Sorvall, rotor: SM24=20000 rpm). The cell pellets were resuspended in Krebs-tris buffer and homogenized by polytron for ca. 15 sec on ice. Protein was measured (Bradford method, Bio-Rad) and aliquots of 1 mL were prepared and stored at −80° C.
Assays were incubated to equilibrium for 1 hour at 4° C. and harvested onto GF/C uni-filters (Packard) by filtration using a Packard harvester and washing with ice-cold wash buffer (50 mM Tris; pH 7.5). After drying, filter-retained radioactivity was detected by liquid scintillation counting. Ki values were calculated using Excel-Fit (Microsoft) and are the means of two determinations.

h-GABA-A α5β3γ2 [2] = molecular target: T1, h-GABA-A α5β3γ2; assay: Two-electrode voltage clamp electrophysiology in Xenopus laevis oocytes expressing GABAA receptors, modulation of GABA EC20 current; format: cell-based; parameters: host or cells: Xenopus laevis oocytes micro-injected with RNA transcripts of the subunits
Experimental: Xenopus laevis oocytes at maturation stages V-VI were used for the expression of cloned mRNA encoding GABAA receptor subunits. Oocytes ready for RNA micro-injection were bought from Ecocyte, Castrop-Rauxel, Germany and stored in modified Barth's medium (composition in mM: NaCl 88, KCl 1, NaHCO32.4, HEPES 10, MgSO4 0.82, CaNO3 0.33, CaCl2 0.33, pH=7.5) at 20° C. until the experiment.
Oocytes were plated in 96-well plates to be used in an automated instrument (Robo-ocyte, MultiChannelSystems, Reutlingen, Germany) for microinjection and electrophysiological recordings. Approximately 50 nl of an aqueous solution containing the RNA transcripts for the subunits of the desired GABAA receptor was injected into each oocyte. RNA concentrations ranged between 0.3 and 16 ng/μl/subunit and were adjusted in pilot experiments to obtain GABA responses of a suitable size and a maximal effect of the reference modulator, Beta-CCM (β-CCM), a betacarboline negative allosteric modulator (NAM) at the GABAA receptor benzodiazepine (BZD) binding site or Midazolam, a benzodiazepine positive allosteric modulator (PAM) at the GABAA receptor benzodiazepine (BZD) binding site. The concentration of the γ2 subunit encoding RNA usually was 5- to 10-fold higher than the RNAs encoding the other subunits. Oocytes were kept in modified Barth's medium (composition in mM: NaCl 88, KCl 1, NaHCO3 4, HEPES 10, MgSO4 0.82, CaNO3 0.33, CaCl2) 0.33, pH=7.5) at 20° C. until the experiment.
Electrophysiological experiments were performed on days 3 to 5 after the micro-injection of mRNA. During the experiment the oocytes were constantly superfused by a solution containing (in mM) NaCl 90, KCl 1, HEPES 5, MgCl2 1, CaCl2) 1 (pH 7.4). Oocytes were impaled by two glass microelectrodes (resistance: 0.4 MΩ) which were filled with a solution containing KCl 1M+K-acetate 1.5 M and voltage-clamped to −80 mV. The recordings were performed at room temperature using the Roboocyte two-electrode voltage clamp system (Multichannelsystem). After an initial equilibration period of 1.5 min GABA was added for 1.5 min at a concentration evoking approximately 20% of a maximal current response (EC20). After another rest interval of 2.5 min GABA was again added evoking a response of similar amplitude and shape. 0.5 min after the onset of this second GABA application the test compound, at a concentration corresponding to approximatively 30 fold its Ki, was added while GABA was still present. Current traces were recorded at a digitization rate of 10 Hz during and shortly before and after the GABA application.
Each compound and concentration was tested on at least 3 oocytes. Different oocytes were used for different compound concentrations. β-CCM, a negative allosteric modulator, or Midazolam, a positive allosteric modulators, were tested on a few (3-6) oocytes on each 96-well plate for a positive control at a maximally effective. β-CCM inhibited the GABA-evoked current by approximatively 50% (Fold increase ˜0.5), while Midazolam potentiated the GABA-induced current by approximatively 150% (Fold increase ˜2.5).
For the analysis, the digitized current traces of the first and second GABA response were superimposed and, if necessary, rescaled to equal maximal amplitudes. The ratio between the two responses during the time interval of test compound application was calculated point by point. The extremum of the resulting “ratio trace” was taken as the efficacy (“Fold increase”) of the compound expressed as “% modulation of GABA EC20” (100*(Fold increase-1)).

[3] = % modulation of GABA EC20 = 100*(Fold increase-1), Table 1
[4] = test compound at approx. 30 fold its Ki, GABA at EC20, Table 1
[5] = positive control at a maximally effective concentration, 3-6 oocytes per plate

| SMILES | Ki (h-GABA-A α5β3γ2 [1]) [nM] | Efficacy (GABA) % (h-GABA-A α5β3γ2 [2]; [3]) [%] | Fold increase h-GABA-A α5β3γ2 oocyte (h-GABA-A α5β3γ2 [2]; [4]) | Fold increase (h-GABA-A α5β3γ2 [2]; [5]) | potentiation of the GABA-induced current (h-GABA-A α5β3γ2 [2]; [5]) [%] | Efficacy (GABA) % (h-GABA-A α5β3γ2 [2]; reference compounds, % modulation of GABA EC20, Table 2) [%] | Fold increase h-GABA-A α5β3γ2 oocyte (h-GABA-A α5β3γ2 [2]; reference compounds, Table 2) | inhibition of the GABA-evoked current (h-GABA-A α5β3γ2 [2]; [5]) [%] |
| --- | --- | --- | --- | --- | --- | --- | --- | --- |
| Cc1ccc(-c2noc(C)c2Cn2ncc(N3C[C@H](C)O[C@@H](C)C3)cc2=O)cn1 (single isomer, unassigned) [Example 29, 5-[(2S,6S)-2,6-dimethylmorpholin-4-yl]-2-[[5-methyl-3-(6-methyl-3-pyridyl)isoxazol-4-yl]methyl]pyridazin-3-one or enantiomer] | 1.4 | 228 | 3.28 |  |  |  |  |  |
| Cc1ccc(-c2noc(C)c2Cn2ncc(N3C[C@@H](C)O[C@H](C)C3)cc2=O)cn1 (single isomer, unassigned) [Example 30, 5-[(2R,6R)-2,6-dimethylmorpholin-4-yl]-2-[[5-methyl-3-(6-methyl-3-pyridyl)isoxazol-4-yl]methyl]pyridazin-3-one or enantiomer] | 0.5 | 216 | 3.16 |  |  |  |  |  |
| Cc1ccc(-c2noc(C)c2Cn2ncc(N3CC4(CC(C)CO4)C3)cc2=O)nn1 (single isomer, unassigned) [Example 240, 2-[[5-methyl-3-(6-methylpyridazin-3-yl)isoxazol-4-yl]methyl]-5-[(7R)-7-methyl-5-oxa-2-azaspiro[3.4]octan-2-yl]pyridazin-3-one or enantiomer] | 5.7 | 94 | 1.94 |  |  |  |  |  |
| Cc1ccc(-c2noc(C)c2Cn2ncc(N3CC4(CC(C)CO4)C3)cc2=O)nn1 (single isomer, unassigned) [Example 241, 2-[[5-methyl-3-(6-methylpyridazin-3-yl)isoxazol-4-yl]methyl]-5-[(7S)-7-methyl-5-oxa-2-azaspiro[3.4]octan-2-yl]pyridazin-3-one or enantiomer] | 5.4 | 80 | 1.8 |  |  |  |  |  |
| Cc1onc(-c2ccc(Cl)nc2)c1Cn1ncc(N2CC(OC(C)C(F)(F)F)C2)cc1=O (single isomer, unassigned) [Example 265] | 25.8 | 155 | 2.55 |  |  |  |  |  |
| Cc1onc(-c2ccc(Cl)nc2)c1Cn1ncc(N2CC(OC(C)C(F)(F)F)C2)cc1=O (single isomer, unassigned) [Example 266] | 35.8 | 136 | 2.36 |  |  |  |  |  |
| Cc1ccc(-c2noc(C)c2Cn2ncc(N3CC4(CC(F)CCO4)C3)cc2=O)cn1 (single isomer, unassigned) [Example 273] | 30 | 126 | 2.26 |  |  |  |  |  |
| Cc1ccc(-c2noc(C)c2Cn2ncc(N3CC4(CC(F)CCO4)C3)cc2=O)cn1 (single isomer, unassigned) [Example 274] | 15.8 | 110 | 2.1 |  |  |  |  |  |
| Cc1ccc(-c2noc(C)c2Cn2ncc(N3CC4(CCC(F)CO4)C3)cc2=O)cn1 (single isomer, unassigned) [Example 275] | 4.6 | 89 | 1.89 |  |  |  |  |  |
| Cc1ccc(-c2noc(C)c2Cn2ncc(N3CC4(CCC(F)CO4)C3)cc2=O)cn1 (single isomer, unassigned) [Example 276] | 36.2 | 102 | 2.02 |  |  |  |  |  |
| Cc1ccc(-c2noc(C)c2Cn2ncc(N3CC4(CC(F)CCO4)C3)cc2=O)nn1 (single isomer, unassigned) [Example 287] | 3.8 | 77 | 1.77 |  |  |  |  |  |
| Cc1ccc(-c2noc(C)c2Cn2ncc(N3CC4(CCC(F)CO4)C3)cc2=O)nn1 (single isomer, unassigned) [Example 288] | 3.2 | 63 | 1.63 |  |  |  |  |  |
| Cc1onc(-c2ccc(Cl)nc2)c1Cn1ncc(N2CC3(CC(F)CCO3)C2)cc1=O (single isomer, unassigned) [Example 296, (R or S)-2-((3-(6-chloropyridin-3-yl)-5-methylisoxazol-4-yl)methyl)-5-(8-fluoro-5-oxa-2-azaspiro[3.5]nonan-2-yl)pyridazin-3(2H)-one] | 27.7 | 84 | 1.84 |  |  |  |  |  |
| Cc1onc(-c2ccc(Cl)nc2)c1Cn1ncc(N2CC3(CCC(F)CO3)C2)cc1=O (single isomer, unassigned) [Example 297] | 10.7 | 130 | 2.3 |  |  |  |  |  |
| Cc1onc(-c2ccc(Cl)nc2)c1Cn1ncc(N2CC3(CCC(F)CO3)C2)cc1=O (single isomer, unassigned) [Example 298] | 25.4 | 116 | 2.16 |  |  |  |  |  |
| Cc1ccc(-c2noc(C)c2Cn2ncc(N3CC4(CC(C(F)(F)F)CCO4)C3)cc2=O)nn1 (single isomer, unassigned) [Example 311] | 2.4 | 88 | 1.88 |  |  |  |  |  |
| Cc1ccc(-c2noc(C)c2Cn2ncc(N3CC4(CC(C(F)(F)F)CCO4)C3)cc2=O)nn1 (single isomer, unassigned) [Example 312] | 6.5 | 127 | 2.27 |  |  |  |  |  |
| Cc1ccc(-c2noc(C)c2Cn2ncc(N3CC4(CCC(C)CO4)C3)cc2=O)nn1 (single isomer, unassigned) [Example 313] | 7.9 | 103 | 2.03 |  |  |  |  |  |
| Cc1ccc(-c2noc(C)c2Cn2ncc(N3CC4(CC(C)CCO4)C3)cc2=O)nn1 (single isomer, unassigned) [Example 317] | 4.9 | 68 | 1.68 |  |  |  |  |  |
| Cc1ccc(-c2noc(C)c2Cn2ncc(N3CC4(CC(C)CCO4)C3)cc2=O)nn1 (single isomer, unassigned) [Example 318] | 5.6 | 111 | 2.11 |  |  |  |  |  |
| Cc1ccc(-c2noc(C)c2Cn2ncc(N3CC4(CCC(F)CO4)C3)cc2=O)nn1 (single isomer, unassigned) [Example 319] | 1 | 91 | 1.91 |  |  |  |  |  |
| Cc1ncc2n1-c1ccc(Cl)cc1C(c1ccccc1F)=NC2 [Midazolam, reference compound] |  |  |  | ~2.5 | ~150 |  |  |  |
| Cc1onc(-c2ccc(Cl)cn2)c1COc1ccc(C(=O)N2CCOCC2)cn1 [RO-309, reference compound] |  |  |  |  |  | −17 | 0.83 |  |
| COC(=O)c1cc2c(cn1)[nH]c1ccccc12 [β-CCM, reference compound] |  |  |  | ~0.5 |  |  |  | ~50 |
